Earlier results, collected in PubChem BioAssay AID1259409 (Chemical Carcinogenesis Research Information System (CCRIS), 2018).

System: rodent chemically induced tumor inhibition, incidence and multiplicity
Test: CCRIS tumor inhibitor studies
Settings: Route [Inhibitor]: ORAL

O=C1O[C@H]([C@@H](O)CO)C(O)=C1O
tumour outcome (control, treated, inhibition, significance) (Carcinogen: 1,2-DIMETHYLHYDRAZINE DICHLORIDE, 306-37-6, Dose [Inhibitor]: 0, 0.3% SOLUTION IN DRINKING WATER BEGINNING 1 WK POST CARCINOGEN TREATMENT AND AND CONTINUING FOR DURATION OF STUDY (ST, Species: MOUSE, Strain/Sex: CBA/FEMALE, Target Tissue: Type of Lesion: UTERUS: SARCOMA, Dose [Carcinogen]: 8 MG/KG 1/WK FOR 8 WK, Promoter: ESTRADIOL DIPROPIONATE, 133-38-2): 25/40 (63%), 14/40 (35%), 44%, p<0.001
tumour outcome (control, treated, inhibition, significance) (Carcinogen: 1,2-DIMETHYLHYDRAZINE DICHLORIDE, 306-37-6, Dose [Inhibitor]: 0, 0.3% SOLUTION IN DRINKING WATER BEGINNING 1 WK POST CARCINOGEN TREATMENT AND CONTINUING FOR DURATION OF STUDY (STUDY, Species: MOUSE, Strain/Sex: CBA/FEMALE, Target Tissue: Type of Lesion: UTERUS: SARCOMA, Dose [Carcinogen]: 8 MG/KG 1/WK FOR 8 WK, Promoter: ESTRADIOL DIPROPIONATE, 133-38-2): 25/40 (63%), 24/32 (75%), -19%, not calculated
tumour outcome (control, treated, inhibition, significance) (Carcinogen: 1,2-DIMETHYLHYDRAZINE-DIHYDROCHLORIDE, 306-37-6, Dose [Inhibitor]: 25 MG/KG/D IN DIET STARTING AT TIME OF CARCINOGEN TREATMENT AND CONTINUING FOR 35 WK (STUDY DURATION: 35 WK), Species: MOUSE, Strain/Sex: CF-1/FEMALE, Target Tissue: Type of Lesion: LARGE BOWEL: GLANDULAR TUMORS, Dose [Carcinogen]: 20 MG/KG 1/WK FOR 24 WK, Promoter: NONE USED): 18/20 (90%), 19/22 (86%), 4%, not significant
tumour outcome (control, treated, inhibition, significance) (Carcinogen: 1,2-DIMETHYLHYDRAZINE-DIHYDROCHLORIDE, 306-37-6, Dose [Inhibitor]: 50 MG/KG/D IN DIET STARTING AT TIME OF CARCINOGEN TREATMENT AND CONTINUING FOR 35 WK (STUDY DURATION: 35 WK), Species: MOUSE, Strain/Sex: CF-1/FEMALE, Target Tissue: Type of Lesion: LARGE BOWEL: GLANDULAR TUMORS, Dose [Carcinogen]: 20 MG/KG, 1/WK FOR 24 WK, Promoter: NONE USED): 18/20 (90%), 20/20 (100%), -11%, not significant
tumour outcome (control, treated, inhibition, significance) (Carcinogen: 1,2-DIMETHYLHYDRAZINE-DIHYDROCHLORIDE, 306-37-6, Dose [Inhibitor]: 100 MG/KG/DAY IN DIET STARTING AT TIME OF CARCINOGEN TREATMENT AND CONTINUING FOR 35 WK (STUDY DURATION: 35 WK), Species: MOUSE, Strain/Sex: CF-1/FEMALE, Target Tissue: Type of Lesion: LARGE BOWEL: GLANDULAR TUMORS, Dose [Carcinogen]: 20 MG/KG 1/WK FOR 24 WK, Promoter: NONE USED): 18/20 (90%), 16/23 (70%), 22%, not significant
tumour outcome (control, treated, inhibition, significance) (Carcinogen: 1,2-DIMETHYLHYDRAZINE-DIHYDROCHLORIDE, 306-37-6, Dose [Inhibitor]: 200 MG/KG/DAY IN DIET STARTING AT TIME OF CARCINOGEN TREATMENT AND CONTINUING FOR 35 WK (STUDY DURATION: 35 WK), Species: MOUSE, Strain/Sex: CF-1/FEMALE, Target Tissue: Type of Lesion: LARGE BOWEL: GLANDULAR TUMORS, Dose [Carcinogen]: 20 MG/KG 1/WK FOR 24 WK, Promoter: NONE USED): 18/20 (90%), 19/23 (83%), 8%, not significant
tumour outcome (control, treated, inhibition, significance) (Carcinogen: 1,2-DIMETHYLHYDRAZINE, 540-73-8, Dose [Inhibitor]: 0, 0.02% IN DIET FOR 14 WK BEGINNING 3 D PRIOR TO CARCINOGEN TREATMENT (STUDY DURATION: 26 WK), Species: RAT, Strain/Sex: SPRAGUE-DAWLEY/MALE, Target Tissue: Type of Lesion: INTESTINE: CARCINOMA, Dose [Carcinogen]: 20 MG/KG BW 1/WK FOR 12 WK, Promoter: NONE USED): 23/28 (82%), 12/18 (67%), 18%, not significant
tumour outcome (control, treated, inhibition, significance) (Carcinogen: 1,2-DIMETHYLHYDRAZINE, 540-73-8, Dose [Inhibitor]: 0, 5% IN DIET BEGINNING 1 WK POST LAST CARCINOGEN DOSE AND CONTINUING FOR 36 WK (STUDY DURATION: 40 WK), Species: RAT, Strain/Sex: F344/MALE, Target Tissue: Type of Lesion: COLON: ADENOMA, Dose [Carcinogen]: 20 MG/KG 1/WK FOR 4 WK, Promoter: NONE USED): 1/20 (5%), 6/20 (30%), -500%, p<0.05
tumour outcome (control, treated, inhibition, significance) (Carcinogen: 1,2-DIMETHYLHYDRAZINE, 540-73-8, Dose [Inhibitor]: 0, 5% IN DIET BEGINNING 1 WK POST LAST CARCINOGEN DOSE AND CONTINUING FOR 36 WK (STUDY DURATION: 40 WK), Species: RAT, Strain/Sex: F344/MALE, Target Tissue: Type of Lesion: COLON: CARCINOMA, Dose [Carcinogen]: 20 MG/KG 1/WK FOR 4 WK, Promoter: NONE USED): 6/20 (30%), 7/20 (35%), -17%, not calculated
tumour outcome (control, treated, inhibition, significance) (Carcinogen: 1,2-DIMETHYLHYDRAZINE, 540-73-8, Dose [Inhibitor]: 0, 10 G/L IN DRINKING WATER FOR DURATION OF STUDY BEGINNING 7 D PRIOR TO CARCINOGEN TREATMENT (STUDY DURATION: 8 MO), Species: RAT, Strain/Sex: BD6/MALE, Target Tissue: Type of Lesion: INTESTINE: TUMOR, Dose [Carcinogen]: 20 MG/KG BW 1/WK FOR 20 WK, Promoter: NONE USED): 100%, 100%, 0%, not significant
tumour outcome (control, treated, inhibition, significance) (Carcinogen: 1,2-DIMETHYLHYDRAZINE, 540-73-8, Dose [Inhibitor]: 0.25% IN 20% FAT DIET DAILY STARTING 2 WK BEFORE CARCINOGEN TREATMENT AND CONTINUING FOR DURATION OF STUDY (STUDY DURATI, Species: RAT, Strain/Sex: F344/FEMALE, Target Tissue: Type of Lesion: COLON: ADENOMA, ADENOCARCINOMA, Dose [Carcinogen]: 150 MG/KG BW IN 0.9% SALINE ADJUSTED TO PH 6.8 ONCE, Promoter: NONE USED): 26%, 0%, 100%, p<0.05
tumour outcome (control, treated, inhibition, significance) (Carcinogen: 1,2-DIMETHYLHYDRAZINE, 540-73-8, Dose [Inhibitor]: 0.25% IN 20% FAT DIET DAILY STARTING 2 WK BEFORE CARCINOGEN TREATMENT AND CONTINUING FOR DURATION OF STUDY (STUDY DURATI, Species: RAT, Strain/Sex: F344/FEMALE, Target Tissue: Type of Lesion: KIDNEY: NEPHROBLASTOMA, ADENOCARCINOMA, Dose [Carcinogen]: 150 MG/KG BW IN 0.9% SALINE ADJUSTED TO PH 6.8 ONCE, Promoter: NONE USED): 22%, 4%, 82%, p<0.05
tumour outcome (control, treated, inhibition, significance) (Carcinogen: 1,2-DIMETHYLHYDRAZINE, 540-73-8, Dose [Inhibitor]: 0.3% IN DRINKING WATER BEGINNING AFTER LAST CARCINOGEN DOSE AND CONTINUING FOR DURATION OF STUDY (STUDY DURATION: 55 WK), Species: MOUSE, Strain/Sex: CBA/FEMALE, Target Tissue: Type of Lesion: UTERUS (ENDOMETRIUM): STROMAL SARCOMA, Dose [Carcinogen]: 8 MG/KG BW IN WATER 1/WK FOR 8 WK, Promoter: ESTRADIOL PROPIONATE, 113-38-2): 13/40 (33%), 13/30 (43%), -33%, not calculated
